Assay results published in patent publication US6864275B1, “Compounds and methods for use thereof in the treatment of cancer” (UAF Technologies and Research, LLC, priority 1997, dated 2005).

Key:
B16 murine melanoma [1] = assay: MTT cell growth inhibition, B16 melanoma cells; format: cell-based; conditions: 3-6 days incubation
Procedure: (§1) The following cell culture tests were performed to test the toxicity of benzimidazole derivative compounds of the present invention on colon and melanoma tumor cells. The viability of the cells were tested by looking at MTT (3-[4,5-dimethylthiazol-2-yl]-2,5-diphenyltetrazolium bromide) reduction. MTT assay is a well known measure of cell viability.
(§2) The colon tumor cells (HT29) and the melanoma cells (B16 murine melanoma) were seeded (1000-2000 cells) into each well of a 96-well microtiter plate and allowed to grow. Twenty-four hours later, increasing concentrations of each benzimidazole derivative were added to the plates and the cells were allowed to incubate for 3-6 days in the presence of the drugs. MTT reagent was then added to the wells and allowed to incubate for 4 hours at 37° C., after which the formazan metabolite was solubilized with acidic isopropanol and the absorbance was read. Experimental controls included blank wells to which no cells were added (zero point of formazan absorbance) and control wells to which no drug was added (highest level of formazan absorbance). Each drug concentration was tested in duplicate and the resulting average absorbance was plotted against drug concentration using the EZ-ED50 computer program on a personal computer interfaced to the microtiter plate reader. […] The IC50 value is then derived from this equation by EZ-ED50.

B16 murine melanoma [2] = assay: In vivo B16 murine melanoma tumor model; set-up: species or system B6D2F1 mice; conditions: qd × 5; for T/C (%): mean survival treated/control; for # of Survivors: survived at least 60 days
Procedure: B6D2F1 mice received interperitoneally (i.p.) inocula of B16 murine melanoma brei prepared from B16 tumors growing s.c. in mice (Day 0). On Day 1, mice were randomized into groups, with 20 mice in the control group and 10 mice in each treated group (except there were 8 mice in selected groups given compound 3-13. Treatment with drugs or vehicle control was started on Day 1.
The mean survival times of all groups were calculated and results were expressed as mean survival of treated mice/mean survival of control mice (T/C)×100%. A “T/C” value of 150 means that the mice in the treated group lived 50% longer than those of the control group; this is sometimes referred to as the increase in life span, or ILS value.
Mice that survived for at least 60 days were considered to be long-term survivors, or cures, in the B16 model. The universally accepted cut-off for activity in this model, which has been used for years by the NCI, is T/C=125. Conventional use of B16 over the years has set the following levels of activity:
T/C>300, with long-term survivors=excellent, curative activity.

colon tumor cells (HT29) = assay: MTT cell growth inhibition, HT29 colon tumor cells; format: cell-based; conditions: 3-6 days incubation, read-out: IC50 Human Colon Carcinoma
Procedure: as §1, §2

Tubulin = assay: Microtubule inhibition assay (tubulin polymerization, absorbance at 350 nm); format: biochemical, bovine; conditions: compound at 2 μM, after 30 minutes
Procedure: The benzimidazole derivatives of this invention were evaluated for their ability to inhibit formation of microtubules, following the procedure of Luduena, R. F. and M. C. […] Microtubule polymerization was followed by performing the reaction in a cuvette and monitoring UV absorbance at 350 nm, allowing direct visualization of the time course of the polymerization.

SMILES	IC50 (B16 murine melanoma [1]) [nM]	# of Toxic Deaths (B16 murine melanoma [2]; 10 mg/kg/i.v)	Weight Change (Day 12) (B16 murine melanoma [2]; 10 mg/kg/i.v)	T/C (%) (B16 murine melanoma [2]; 10 mg/kg/i.v)	# of Survivors (B16 murine melanoma [2]; 10 mg/kg/i.v)	# of Toxic Deaths (B16 murine melanoma [2]; 20 mg/kg/i.v)	Weight Change (Day 12) (B16 murine melanoma [2]; 20 mg/kg/i.v)	T/C (%) (B16 murine melanoma [2]; 20 mg/kg/i.v)	# of Survivors (B16 murine melanoma [2]; 20 mg/kg/i.v)	# of Toxic Deaths (B16 murine melanoma [2]; 50 mg/kg/i.p)	Weight Change (Day 12) (B16 murine melanoma [2]; 50 mg/kg/i.p)	T/C (%) (B16 murine melanoma [2]; 50 mg/kg/i.p)	# of Toxic Deaths (B16 murine melanoma [2]; 100 mg/kg/i.p)	Weight Change (Day 12) (B16 murine melanoma [2]; 100 mg/kg/i.p)	T/C (%) (B16 murine melanoma [2]; 100 mg/kg/i.p)	# of Survivors (B16 murine melanoma [2]; 100 mg/kg/i.p)	IC50 (colon tumor cells (HT29)) [nM]	Tubulin Polymerization Inhibition, % Inhibition (Tubulin) [%]	# of Survivors (B16 murine melanoma [2]; 50 mg/kg/i.p)	other results
COC(=O)Nc1nc2ccc(C(=O)OCCCCCl)cc2[nH]1 [Cpd. No. 3-1]	11	0	+9.3%	97	0	0	+6.3%	98	0	0	+7.5%	132	0	+12.9%	108	0	10	28		antitumor activity level by NCI criteria (B16 murine melanoma [2]; 50 mg/kg/i.p): weak activity (T/C=125-150, weak activity)
COC(=O)Nc1nc2ccc(C(=O)OCC(C)CC(C)(C)C)cc2[nH]1 (stereo not shown) [3-13]	4.6									0	+12.5%	94	0	+9.8%	75	0	19	28	0	# of Toxic Deaths (B16 murine melanoma [2]; 2.5 mg/kg/i.v): 0; Weight Change (Day 12) (B16 murine melanoma [2]; 2.5 mg/kg/i.v): +11.7%; T/C (%) (B16 murine melanoma [2]; 2.5 mg/kg/i.v): 92%; # of Survivors (B16 murine melanoma [2]; 2.5 mg/kg/i.v): 0; # of Toxic Deaths (B16 murine melanoma [2]; 5 mg/kg/i.v): 7; Weight Change (Day 12) (B16 murine melanoma [2]; 5 mg/kg/i.v): +3.6%; T/C (%) (B16 murine melanoma [2]; 5 mg/kg/i.v): 91%; # of Survivors (B16 murine melanoma [2]; 5 mg/kg/i.v): 0
CCC(C)COC(=O)c1ccc2nc(NC(=O)OC)[nH]c2c1 (stereo not shown) [3-19]	48					0	+7.8%	106	0	0	+9.6%	119	0	+10.8%	124	0	12	28	0	# of Toxic Deaths (B16 murine melanoma [2]; 40 mg/kg/i.v): 6; Weight Change (Day 12) (B16 murine melanoma [2]; 40 mg/kg/i.v): +2.5%; T/C (%) (B16 murine melanoma [2]; 40 mg/kg/i.v): 73%; # of Survivors (B16 murine melanoma [2]; 40 mg/kg/i.v): 0
C=CCCOC(=O)c1ccc2nc(NC(=O)OC)[nH]c2c1 [3-6]	44	0	+8.7%	107	0	0	+6.5%	99	0	0	+9.4%	119	0	+8.9%	118	0	7.6	12	0	
